Reference: patent publication US20070286822A1, “Compounds for the Treatment of Periodontal Disease” (ANACOR PHARMACEUTICALS INC., priority 2006, published 2007)

How the values were obtained:
IL-13 = assay: TH2 cytokines: PBMC, PHA, IL-13; format: cell-based; details: 24 h, read-out: IL-13 (anti-inflammatory data, TH2 cytokine)
Method: (§1) Anti-inflammatory data for 3-hydroxypyridine-2-carbonyloxy-bis(3-chloro-4-methylphenyl)-borane
(§2) TH2 cytokines: PBMC, PHA@ […], 24 h

IFN-g = assay: TH1 cytokines: PBMC, PHA, IFN-g; format: cell-based; details: 24 h, read-out: IFN-g (anti-inflammatory data, TH1 cytokine)
Method: as §1
(§3) TH1 cytokines: PBMC, PHA@ […], 24 h

IL-5 = assay: TH2 cytokines: PBMC, PHA, IL-5; format: cell-based; details: 24 h, read-out: IL-5 (anti-inflammatory data, TH2 cytokine)
Method: as §1, §2

IL-4 = assay: TH2 cytokines: PBMC, PHA, IL-4; format: cell-based; details: 24 h, read-out: IL-4 (anti-inflammatory data, TH2 cytokine)
Method: as §1, §2

IL-2 = assay: TH1 cytokines: PBMC, PHA, IL-2; format: cell-based; details: 24 h, read-out: IL-2 (anti-inflammatory data, TH1 cytokine)
Method: as §1, §3

IL-8 = assay: Pro-inflammatory cytokines: THP-1 cells, LPS, IL-8; format: cell-based; details: Homo sapiens, 24 hr, read-out: IL-8 (anti-inflammatory data, pro-inflammatory cytokine)
Method: as §1
(§4) Pro-inflammatory cytokines: THP-1 cells, LPS@ […], 24 hr

IL-1β = assay: Pro-inflammatory cytokines: THP-1 cells, LPS, IL-1β; format: cell-based; details: Homo sapiens, 24 hr, read-out: IL-1β (anti-inflammatory data, pro-inflammatory cytokine)
Method: as §1, §4

IL-3 = assay: Regulatory cytokine: PBMC, PHA, IL-3; format: cell-based; details: 24 h, read-out: IL-3 (anti-inflammatory data, regulatory cytokine)
Method: as §1
Regulatory cytokine: PBMC, PHA@ […], 24 h

IL-6 = assay: Pro-inflammatory cytokines: THP-1 cells, LPS, IL-6; format: cell-based; details: Homo sapiens, 24 hr, read-out: IL-6 (anti-inflammatory data, pro-inflammatory cytokine)
Method: as §1, §4

IL-10 = assay: TH2 cytokines: PBMC, PHA, IL-10; format: cell-based; details: 24 h, read-out: IL-10 (anti-inflammatory data, TH2 cytokine)
Method: as §1, §2

TNF-α = assay: Pro-inflammatory cytokines: THP-1 cells, LPS, TNF-α; format: cell-based; details: Homo sapiens, 24 hr, read-out: TNF-α (anti-inflammatory data, pro-inflammatory cytokine)
Method: as §1, §4

Row | Compound | melting point [°C] | other results
1 | Cc1ccc(B(OC(=O)c2ncccc2O)c2ccc(C)c(Cl)c2)cc1Cl [3-hydroxypyridine-2-carbonyloxy-bis(3-chloro-4-methylphenyl)-borane] | – | IC50 (IL-13): > 10 µM; IC50 (IFN-g): > 25 µM; IC50 (IL-5): 9.3 µM; IC50 (IL-4): > 25 µM; IC50 (IL-2): > 25 µM; IC50 (IL-8): 9.6 µM; IC50 (IL-1β): 1 µM; IC50 (IL-3): > 10 µM; IC50 (IL-6): 5.3 µM; IC50 (IL-10): 14.5 µM; IC50 (TNF-α): 2.7 µM
2 | OB1OCc2ccc(Sc3ccc(Cl)cc3)cc21 [C88, 6-(4-chlorophenylthio)benzo[c][1,2]oxaborol-1(3H)-ol] | 157 to 161 | –
3 | [O-][S+](c1ccc(Cl)cc1)c1ccc2c(c1)B(O)OC2 (centres unmarked) [C89, 6-(4-chlorophenylsulfinyl)benzo[c][1,2]oxaborol-1(3H)-ol] | 154 to 161 | –
4 | O=S(=O)(c1ccc(Cl)cc1)c1ccc2c(c1)B(O)OC2 [C90, 6-(4-chlorophenylsulfonyl)benzo[c][1,2]oxaborol-1(3H)-ol] | 157 to 163 | –
5 | O=S(=O)(c1ccccc1)N(c1ccc2c(c1)COB2O)S(=O)(=O)c1ccccc1 [C91, N-(1-hydroxy-1,3-dihydrobenzo[c][1,2]oxaborol-5-yl)-N-(phenylsulfonyl)benzenesulfonamide] | 142 to 152 | –
6 | OB1OCc2ccc(Sc3ccc(C(F)(F)F)cc3)cc21 [C92, 6-(4-(trifluoromethyl)phenylthio)benzo[c][1,2]oxaborol-1(3H)-ol] | 111 to 113 | –
7 | [O-][S+](c1ccc(C(F)(F)F)cc1)c1ccc2c(c1)B(O)OC2 (centres unmarked) [C93, 6-(4-(trifluoromethyl)phenylsulfinyl)benzo[c][1,2]oxaborol-1(3H)-ol] | 79 to 88 | –
8 | CSc1ccc(Sc2ccc3c(c2)B(O)OC3)cc1 [C94, 6-(4-(methylthio)phenylthio)benzo[c][1,2]oxaborol-1(3H)-ol] | 117 to 120 | –
9 | Cc1ccc(Sc2ccc3c(c2)B(O)OC3)cc1 [C95, 6-(p-tolylthio)benzo[c][1,2]oxaborol-1(3H)-ol] | 139 to 144 | –
10 | N#Cc1cccc(COc2ccc3c(c2)COB3O)c1 [C96, 3-((1-hydroxy-1,3-dihydrobenzo[c][1,2]oxaborol-5-yloxy)methyl)benzonitrile] | 147 to 150 | –
11 | Fc1ccc2c(c1)COB2c1ccsc1 [compound 13, 1,3-Dihydro-5-fluoro-1-(thiophen-3-yl)-2,1-benzoxaborole] | 33 to 35 | –
12 | Cc1cscc1B1OCc2cc(F)ccc21 [compound 14, 1,3-Dihydro-5-fluoro-1-(4-methylthiophen-3-yl)-2,1-benzoxaborole] | 51 to 53 | –
13 | Fc1ccc2c(c1)COB2c1cccnc1 [compound 15, 3-(1,3-Dihydro-5-fluoro-2,1-benzoxaborol-1-yl)pyridine] | 210 to 212 | –
